Data set [1] relates to ROS1. Kind of data set: ROS1 degradation in Ba/F3 cells (WES immunoblotting). The note with it: maximal degradation of ROS1 in Ba/F3 cells. The data set is classed as cell-based. Put shortly: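 ROS1 and phospho-ROS1 (Tyr2274/2334) in Ba/F3 lysates quantified by capillary immunoassay (WES) with chemiluminescent detection, duplicate experiments. Levels expressed as AUC of the chemiluminescence peak.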

The subject of data set [2] is Ba/F3 ROS1 (CD74) G2032R-L2086F. The experiment in a line: Antiproliferation assay. The note with it: Mus musculus, BaF3; Ba/F3 cell line. The data set is classed as cell-based. As for the experimental part: (§1) Ba/F3 immortalized murine bone marrow–derived pro-B cells were obtained from Creative Biogene (Shirley, NY) and cultured in RPMI supplemented with 10% FBS and IL3 (0.5 ng/mL). Ba/F3 cells expressing ROS1 variants were maintained in RPMI supplemented with 10% FBS and puromycin (0.7 mg/mL). Crizotinib, ceritinib, brigatinib, repotrectinib, and lorlatinib were purchased from MedChem Express. Each compound was dissolved in DMSO and serially diluted in RPMI for cell culture experiments.
(§2) To assess the 72 h effect of drug treatment on cell proliferation, 2000 to 3000 cells were plated in replicates of three in 96-well plates. The plates were placed in an incubator at 37 °C, 5% CO2 for 72 h. Following drug treatments, the cells were incubated with the Alamar Blue Assay reagent (BioRad), 5 μL each well for 4 h at 37 °C and 5% CO2. Luminescence was measured on a multiplate reader and analyzed. […] IC50 values were determined using a nonlinear regression model with a sigmoidal dose response in GraphPad. The data were collected based on triplicate experiments, and presented as mean ± SD.
(§3) cDNA encoding CD74-ROS1 or mutant CD74–ROS1 was cloned into retroviral expression vectors (pLenti), and viruses were generated in HEK293T cells by transfecting with packaging plasmids. The resulting virus was used to infect Ba/F3 cells. After retroviral infection, Ba/F3 cells were selected by incubation with puromycin (0.7 mg/mL) for 2 weeks. For Ba/F3 cells infected by the CD74–ROS1 variants, IL3 was withdrawn from the culture medium at least 2 weeks before the experiments.

A further data set relates to Ba/F3 ROS1 (CD74) G2032R. The experiment in a line: Antiproliferation assay. The data set is classed as cell-based. The note with it: Mus musculus, BaF3; Ba/F3 cell line. As for the experimental part: as §1, §2, §3
Another data set deals with Ba/F3 ROS1 (CD74) L2086F. Kind of data set: Antiproliferation assay. The data set is classed as cell-based. Particulars: Mus musculus, BaF3; Ba/F3 cell line. The method, then:
as §1, §2, §3

The test system of data set [3] is Ba/F3 ROS1 (CD74) S1986F-G2032R-L2086F. The experiment in a line: Antiproliferation assay. The class given is cell-based. Particulars: Mus musculus, BaF3; Ba/F3 cell line. As for the experimental part: as §1, §2, §3
For data set [4], the system named is Ba/F3 ROS1 (CD74) S1986F-G2032R. The experiment in a line: Antiproliferation assay. The note with it: Mus musculus, BaF3; Ba/F3 cell line. The class given is cell-based. The method, then: as §1, §2, §3
In data set [5] the test system is Ba/F3 ROS1 (CD74) S1986F-L2086F. The experiment in a line: Antiproliferation assay. The data set is classed as cell-based. The note with it: Mus musculus, BaF3; Ba/F3 cell line. As for the experimental part: as §1, §2, §3
Another data set in a line: Log P measurement. The class given is physicochemical. The source says: An important physicochemical property for a PROTAC molecule is its lipophilicity that largely dictates its pharmaceutical performance such as absorption, permeability, and distribution.
The nature of data set [6]: Metabolic stability in rat microsomes. The class given is in vitro ADME. The note with it: rat, pooled rat microsomes, pH 7.4, 250 nM compound, NADPH, 37 °C.
Data set [7] has as its target ROS1 (Homo sapiens, UniProt P08922). Kind of data set: Kinase assay. The class given is biochemical. Particulars: average of duplicate measurements.
The target in another data set is FAK/PTK2 (Homo sapiens, UniProt Q05397). Kind of data set: Kinase assay. The class given is biochemical. The note with it: average of duplicate measurements.
The target in another data set is CLK1 (Homo sapiens, UniProt P49759). Kind of data set: Kinase assay. The data set is classed as biochemical. Particulars: average of duplicate measurements.
Another data set concerns the target ERBB2 (Homo sapiens, UniProt P04626). Kind of data set: Kinase assay. The class given is biochemical. Particulars: average of duplicate measurements.
The next data set addresses BRK (PTK6) (Homo sapiens, UniProt Q13882). Kind of data set: Kinase assay. The class given is biochemical. The note with it: average of duplicate measurements.
The target of the next data set is RET (Homo sapiens, UniProt P07949). The experiment in a line: Kinase assay. The class given is biochemical. Particulars: average of duplicate measurements.
Another data set concerns ROS1 (G2032R). Kind of data set: Degradation assay (Western blot in treated cells). The data set is classed as cell-based. Particulars: average of duplicate measurements. As for the experimental part:
However, the degradation selectivity of 9o often contrasts with its kinase binding selectivity as determined in cells treated with 9o where the kinase level was measurable by Western blot analysis. […] For example, FLT3, CHEK2, and FES, all with kinase binding at <10 nM, were only moderately or minimally degraded, if at all (Table 9).
Protein levels were analyzed using a WES instrument according to the WES User Guide from ProteinSimple in duplicate experiments. The samples were mixed with the fluorescent 5 master mix (ProteinSimple) and then heated at 95 °C for 5 min. Boiled samples, biotinylated protein ladder, antibody diluent, Streptavidin-HRP, primary antibodies, ProteinSimple horseradish peroxidase conjugated antirabbit or antimouse secondary antibodies, luminol-peroxide, and wash buffer were loaded into the WES plate (Wes 12–230 kDa Prefilled Plates with Split Buffer, ProteinSimple). The plates and capillary cartridges were loaded into the WES instrument, and protein separation, antibody incubation, and imaging were performed according to manufacturer’s instructions. Compass software (ProteinSimple) was used to acquire the data and to generate the virtual blot image reconstruction and chemiluminescence signal intensity electropherograms. […] Protein levels are expressed as the AUC of the peak chemiluminescence intensity. […]

Results on one molecule are retold here after PMC11513893, “Discovery of Oral Degraders of the ROS1 Fusion Protein with Potent Activity against Secondary Resistance Mutations” (Journal of Medicinal Chemistry, 2024).

Sequence of ROS1 (Homo sapiens, UniProt P08922) (P08922 1883-2347 limits assumed): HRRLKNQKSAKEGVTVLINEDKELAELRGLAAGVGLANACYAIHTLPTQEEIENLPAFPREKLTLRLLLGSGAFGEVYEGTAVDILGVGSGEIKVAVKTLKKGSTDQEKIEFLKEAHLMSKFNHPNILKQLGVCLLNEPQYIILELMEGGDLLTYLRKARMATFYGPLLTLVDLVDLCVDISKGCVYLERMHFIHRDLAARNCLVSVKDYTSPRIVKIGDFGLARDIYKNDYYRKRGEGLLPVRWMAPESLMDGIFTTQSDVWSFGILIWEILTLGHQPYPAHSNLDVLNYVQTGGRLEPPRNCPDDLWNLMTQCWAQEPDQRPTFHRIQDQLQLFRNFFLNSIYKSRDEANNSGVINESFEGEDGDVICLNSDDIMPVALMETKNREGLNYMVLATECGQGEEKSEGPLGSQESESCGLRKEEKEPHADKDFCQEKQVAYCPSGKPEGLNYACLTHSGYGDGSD
Sequence of FAK/PTK2 (Q05397 whole entry): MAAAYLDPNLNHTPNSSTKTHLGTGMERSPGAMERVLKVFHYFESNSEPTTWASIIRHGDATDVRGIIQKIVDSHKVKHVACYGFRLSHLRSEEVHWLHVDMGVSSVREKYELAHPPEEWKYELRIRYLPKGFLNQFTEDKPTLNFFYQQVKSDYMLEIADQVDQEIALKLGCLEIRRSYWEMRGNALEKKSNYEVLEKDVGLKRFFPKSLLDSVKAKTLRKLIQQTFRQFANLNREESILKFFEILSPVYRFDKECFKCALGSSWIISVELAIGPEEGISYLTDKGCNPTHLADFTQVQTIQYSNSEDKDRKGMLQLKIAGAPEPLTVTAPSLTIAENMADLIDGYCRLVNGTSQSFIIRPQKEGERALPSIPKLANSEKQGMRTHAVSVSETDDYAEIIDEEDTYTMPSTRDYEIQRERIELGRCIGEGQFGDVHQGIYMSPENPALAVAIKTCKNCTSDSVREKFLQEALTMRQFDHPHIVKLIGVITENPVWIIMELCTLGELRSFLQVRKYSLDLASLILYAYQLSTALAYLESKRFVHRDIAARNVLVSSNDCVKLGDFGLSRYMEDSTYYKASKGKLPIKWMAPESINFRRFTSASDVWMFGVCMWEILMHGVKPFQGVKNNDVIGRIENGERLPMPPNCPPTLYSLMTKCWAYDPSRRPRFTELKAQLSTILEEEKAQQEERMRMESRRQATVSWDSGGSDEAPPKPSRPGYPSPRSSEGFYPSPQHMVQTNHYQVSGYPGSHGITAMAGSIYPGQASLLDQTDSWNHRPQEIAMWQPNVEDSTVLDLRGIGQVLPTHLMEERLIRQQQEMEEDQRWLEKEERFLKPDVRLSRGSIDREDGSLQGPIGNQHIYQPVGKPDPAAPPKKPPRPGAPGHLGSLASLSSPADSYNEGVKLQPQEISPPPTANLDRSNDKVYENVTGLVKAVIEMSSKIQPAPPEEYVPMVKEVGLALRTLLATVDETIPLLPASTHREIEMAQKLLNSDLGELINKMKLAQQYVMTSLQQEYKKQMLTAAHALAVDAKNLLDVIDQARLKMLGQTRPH
Sequence of ERBB2 (P04626 23-1255, species assumed): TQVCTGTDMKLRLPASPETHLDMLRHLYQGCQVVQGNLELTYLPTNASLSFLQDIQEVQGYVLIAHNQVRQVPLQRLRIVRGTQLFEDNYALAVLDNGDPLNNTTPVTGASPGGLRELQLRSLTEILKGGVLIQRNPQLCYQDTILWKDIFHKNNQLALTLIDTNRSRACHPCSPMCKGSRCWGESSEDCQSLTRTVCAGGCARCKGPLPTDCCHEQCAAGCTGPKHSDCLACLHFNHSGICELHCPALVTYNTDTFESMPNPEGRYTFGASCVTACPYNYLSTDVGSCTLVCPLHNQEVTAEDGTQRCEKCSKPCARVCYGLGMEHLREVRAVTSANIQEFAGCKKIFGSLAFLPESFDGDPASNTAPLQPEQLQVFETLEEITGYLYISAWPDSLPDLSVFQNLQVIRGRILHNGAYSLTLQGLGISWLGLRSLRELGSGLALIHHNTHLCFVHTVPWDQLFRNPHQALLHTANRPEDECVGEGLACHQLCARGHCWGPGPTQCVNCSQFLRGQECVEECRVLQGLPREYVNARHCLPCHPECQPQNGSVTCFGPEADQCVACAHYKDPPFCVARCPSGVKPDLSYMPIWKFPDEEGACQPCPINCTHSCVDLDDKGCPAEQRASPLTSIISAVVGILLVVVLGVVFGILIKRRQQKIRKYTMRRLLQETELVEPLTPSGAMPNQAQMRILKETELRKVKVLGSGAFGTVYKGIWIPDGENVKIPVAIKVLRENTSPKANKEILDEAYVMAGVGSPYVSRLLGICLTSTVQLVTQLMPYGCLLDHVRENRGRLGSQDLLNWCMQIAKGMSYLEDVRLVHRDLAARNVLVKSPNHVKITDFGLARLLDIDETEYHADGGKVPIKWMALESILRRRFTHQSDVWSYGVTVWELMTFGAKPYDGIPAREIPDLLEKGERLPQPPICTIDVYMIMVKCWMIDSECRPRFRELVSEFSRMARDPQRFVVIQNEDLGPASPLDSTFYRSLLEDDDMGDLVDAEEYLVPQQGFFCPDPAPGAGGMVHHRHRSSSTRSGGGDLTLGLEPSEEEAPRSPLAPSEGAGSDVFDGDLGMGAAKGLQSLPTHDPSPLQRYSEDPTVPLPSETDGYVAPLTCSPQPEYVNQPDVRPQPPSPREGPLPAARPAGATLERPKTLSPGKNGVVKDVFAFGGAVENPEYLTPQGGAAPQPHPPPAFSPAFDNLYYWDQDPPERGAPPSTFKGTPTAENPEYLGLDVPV
Sequence of BRK (PTK6) (Q13882 whole entry, species assumed): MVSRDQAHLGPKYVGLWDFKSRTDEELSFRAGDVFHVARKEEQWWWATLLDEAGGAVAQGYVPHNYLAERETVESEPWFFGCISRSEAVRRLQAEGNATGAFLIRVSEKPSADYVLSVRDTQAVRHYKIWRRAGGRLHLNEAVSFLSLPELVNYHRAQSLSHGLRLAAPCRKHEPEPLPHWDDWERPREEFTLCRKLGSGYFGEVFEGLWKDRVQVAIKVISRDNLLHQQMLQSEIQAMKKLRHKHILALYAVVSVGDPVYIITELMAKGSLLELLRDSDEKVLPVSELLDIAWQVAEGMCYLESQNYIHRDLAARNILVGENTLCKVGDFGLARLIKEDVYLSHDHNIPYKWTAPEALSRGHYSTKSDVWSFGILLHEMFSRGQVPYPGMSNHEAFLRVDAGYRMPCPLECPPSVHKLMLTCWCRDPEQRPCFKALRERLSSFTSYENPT
Sequence of RET (P07949 29-1114, species assumed): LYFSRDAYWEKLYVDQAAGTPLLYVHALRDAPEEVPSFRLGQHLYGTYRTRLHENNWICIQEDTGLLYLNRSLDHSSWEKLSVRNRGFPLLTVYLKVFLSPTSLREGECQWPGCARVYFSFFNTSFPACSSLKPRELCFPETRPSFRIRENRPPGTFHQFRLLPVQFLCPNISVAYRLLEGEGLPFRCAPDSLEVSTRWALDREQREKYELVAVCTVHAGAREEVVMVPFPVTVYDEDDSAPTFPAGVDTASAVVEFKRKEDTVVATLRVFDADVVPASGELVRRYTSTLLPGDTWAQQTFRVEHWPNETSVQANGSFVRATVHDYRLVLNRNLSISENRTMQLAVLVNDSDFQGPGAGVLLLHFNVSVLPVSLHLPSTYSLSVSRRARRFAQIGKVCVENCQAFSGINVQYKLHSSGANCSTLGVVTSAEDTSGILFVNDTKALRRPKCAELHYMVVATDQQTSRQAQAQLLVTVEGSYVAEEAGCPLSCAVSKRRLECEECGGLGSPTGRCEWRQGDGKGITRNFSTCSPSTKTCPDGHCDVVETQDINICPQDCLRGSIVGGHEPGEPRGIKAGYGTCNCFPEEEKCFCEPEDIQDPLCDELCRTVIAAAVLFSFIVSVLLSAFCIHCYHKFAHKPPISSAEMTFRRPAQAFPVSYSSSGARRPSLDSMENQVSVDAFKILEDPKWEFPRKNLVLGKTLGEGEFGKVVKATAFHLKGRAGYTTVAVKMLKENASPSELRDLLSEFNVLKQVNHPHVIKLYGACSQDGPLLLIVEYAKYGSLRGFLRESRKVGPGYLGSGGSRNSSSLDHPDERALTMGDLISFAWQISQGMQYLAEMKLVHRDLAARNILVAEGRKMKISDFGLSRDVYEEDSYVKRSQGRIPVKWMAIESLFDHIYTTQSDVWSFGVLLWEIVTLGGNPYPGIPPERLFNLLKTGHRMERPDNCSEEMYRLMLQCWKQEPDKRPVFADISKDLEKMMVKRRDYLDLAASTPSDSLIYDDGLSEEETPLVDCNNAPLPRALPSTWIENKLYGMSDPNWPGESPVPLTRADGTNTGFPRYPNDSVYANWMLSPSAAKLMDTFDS
Sequence of CLK1 (P49759 whole entry): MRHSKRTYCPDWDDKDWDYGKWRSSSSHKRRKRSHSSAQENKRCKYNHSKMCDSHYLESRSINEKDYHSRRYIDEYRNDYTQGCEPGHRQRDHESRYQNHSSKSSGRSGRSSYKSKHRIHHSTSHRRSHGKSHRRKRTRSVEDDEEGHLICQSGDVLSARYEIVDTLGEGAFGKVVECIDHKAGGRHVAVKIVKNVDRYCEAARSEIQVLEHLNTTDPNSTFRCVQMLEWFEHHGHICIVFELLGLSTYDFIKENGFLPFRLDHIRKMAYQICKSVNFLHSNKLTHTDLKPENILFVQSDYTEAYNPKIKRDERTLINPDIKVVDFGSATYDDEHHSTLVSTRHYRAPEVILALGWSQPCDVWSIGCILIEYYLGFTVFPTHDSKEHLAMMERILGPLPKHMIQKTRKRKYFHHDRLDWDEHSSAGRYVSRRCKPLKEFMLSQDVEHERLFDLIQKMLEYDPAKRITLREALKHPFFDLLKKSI

Consider `COc1cc(N2CCC(N3CCN(CC4CCN(c5ccc6c(c5)CN(C5CCC(=O)NC5=O)C6=O)CC4)CC3)CC2)ccc1Nc1ncc(Cl)c(Nc2ccccc2P(C)(C)=O)n1` (centres unmarked) [9o, 3-(5-(4-((4-(1-(4-((5-Chloro-4-((2-(dimethylphosphoryl)phenyl)amino)pyrimidin-2-yl)amino)-3-methoxyphenyl)piperidin-4-yl)piperazin-1-yl)methyl)piperidin-1-yl)-1-oxoisoindolin-2-yl)piperidine-2,6-dione], for which, in the data set on ROS1 [1], the “Dmax (%) (ROS1)” value worked out at 99%. Besides, the IC50 in data set [2] came out at 66.2 ± 18.2 nM; in the data set with Ba/F3 ROS1 (CD74) G2032R, 7.7 ± 2 nM; in the data set on Ba/F3 ROS1 (CD74) L2086F, 6.9 ± 1.7 nM; in data set [3] it was 37.8 ± 4.4 nM; in [4], 49.5 ± 10.2 nM; in [5], 1.9 ± 0.4 nM. For the same molecule, the IC50 at ROS1 [7] was determined as 0.0008 µM; against FAK/PTK2, 0.0024 µM; on CLK1 it was 0.035 µM; on ERBB2, 0.042 µM; against BRK (PTK6) it was 0.076 µM; on RET it was 0.082 µM. The same molecule gave a logP in “Log P measurement” of 2.54. For the same molecule, the microsomal CLint at 1 h, 0.25 µM in data set [6] stood at 17.4 µL/min/mg. Further, in data set [6] (read-out: metabolic stability in rat microsomes T1/2), the half-life at 1 h, 0.25 µM turned out to be 1.33 h. The molecule also had a DC50 in the data set on ROS1 (G2032R) of 0.0132 µM.
